# EP4417602A1, “SUBSTITUTED PYRAZOLE CARBOXAMIDES, SALTS THEREOF AND THEIR USE AS HERBICIDALLY ACTIVE SUBSTANCES” (Bayer AG, priority 2023, dated 2024)
# Columns and labels:
# [1] = test system: AMARE; assay: B. Herbicidal post-emergence action on harmful plants (Tables B); type: in vivo, Amaranthus retroflexus; details: application rate 1280 g/ha; Table B8
# Outline: (§1)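 Activity was scored visually as % damage (100% = dead, 0% = like untreated) about 3 weeks after treatment. Plants at the one-leaf stage, 2-3 weeks old, were sprayed with WP/EC formulations plus 0.5% additive (600 L/ha water, up to 1280 g/ha). Plants were grown in sandy loam in a greenhouse.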
# [2] = test system: AVEFA; assay: C. Herbicidal pre-emergence action, weed and crop plants (Tables C); type: in vivo, Avena fatua; details: application rate 320 g/ha; Table C4
# From the text: Seeds of mono- and dicotyledonous weed plants and crop plants were sown, in plastic or organic planting pots, in sandy loam and covered with soil. The compounds according to the invention, formulated in the form of wettable powders (WP) or as emulsifiable concentrates (EC), were applied to the surface of the covering soil as aqueous suspension or emulsion, with the addition of 0.5% of an additive, at an application rate of 6001 of water/ha (converted). Following treatment, the pots were placed in a greenhouse and kept under optimum growth conditions for the test plants. The visual grading of the damage to the test plants was carried out after ca. 3 weeks in comparison to untreated controls (herbicidal effect in percent (%): 100% effect = plants have died off, 0% effect = as control plants). Tables C1 to C12 below show the effects of selected compounds of the general formula (I) according to table 1 on various harmful plants and an application rate corresponding to 320 g/ha or below obtained by the experimental procedure mentioned above. Table C1: pre-emergence activity at 320g/ha against KCHSC in %
# [3] = test system: ABUTH; assay: B. Herbicidal post-emergence action on harmful plants (Tables B); type: in vivo, Abutilon theophrasti
# Outline: as §1
# [4] = test system: VERPE; assay: A. Herbicidal pre-emergence action on harmful plants (Tables A); type: in vivo, Veronica persica; details: application rate 1280 g/ha; Table A11
# Outline: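 Greenhouse pre-emergence test: compound applied to the soil surface at 1280 g/ha or below, and herbicidal effect rated visually at ca. 3 weeks on a 0–100% scale against untreated plants.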
# [5] = test system: ORYZA; assay: D. Pre-emergence effects on crop plants (Tables D); type: in vivo, Oryza sativa; details: crop plant
# From the text: Seeds of mono- and dicotyledonous weed plants and crop plants were sown, in plastic or organic planting pots, in sandy loam and covered with soil. The compounds according to the invention, formulated in the form of wettable powders (WP) or as emulsifiable concentrates (EC), were applied to the surface of the covering soil as aqueous suspension or emulsion, with the addition of 0.5% of an additive, at an application rate of 6001 of water/ha (converted).
# Following treatment, the pots were placed in a greenhouse and kept under optimum growth conditions for the test plants. The visual grading of the damage to the test plants was carried out after ca. 3 weeks in comparison to untreated controls (herbicidal effect in percent (%): 100% effect = plants have died off, 0% effect = as control plants).
# Tables D1 to D5 below show the effects of various compounds of the general formula (I) according to Table 1 on various crop plants and an application rate corresponding to 320 g/ha or below obtained by the experimental procedure mentioned above in Biological Examples, Section C. Table D1a: pre-emergence activity at 320g/ha against ZEAMX in %
# [6] = test system: LOLRI; assay: B. Herbicidal post-emergence action on harmful plants (Tables B); type: in vivo, Lolium rigidum; details: application rate 1280 g/ha; Table B3
# Method: Seeds of mono- and dicotyledonous weed plants were placed in plastic pots in sandy loam soil (doubly sown with in each case one species of mono- or dicotyledonous weed plants per pot), covered with soil and cultivated in a greenhouse under controlled growth conditions. 2 to 3 weeks after sowing, the test plants were treated at the one-leaf stage. The compounds of the invention, formulated in the form of wettable powders (WP) or as emulsion concentrates (EC), were applied onto the green parts of the plants as aqueous suspension or emulsion with addition of 0.5% additive at a water application rate of 600 liters per hectare (converted). After the test plants had been kept in the greenhouse under optimum growth conditions for about 3 weeks, the activity of the preparations was rated visually in comparison to untreated controls. For example, 100% activity = the plants have died, 0% activity = like control plants. Tables B1 to B12, below, show the effects of selected compounds of the general formula (I) according to table 1 on various harmful plants and an application rate corresponding to 1280 g/ha or below obtained by the experimental procedure mentioned above. Table B1a: post-emergence activity at 1280g/ha against ABUTH in %
# [7] = test system: STEME; assay: as above; type: in vivo, Stellaria media; details: application rate 1280 g/ha; Table B6
# Outline: as §1
# [8] = test system: VERPE; assay: as above; type: in vivo, Veronica persica
# Outline: as §1
# [9] = test system: SETVI; assay: as above; type: in vivo, Setaria viridis; details: application rate 1280 g/ha; Table B5
# Outline: as §1
# [10] = test system: SETVI; assay: E. Herbicidal post-emergence action, weed and crop plants (Tables E); type: in vivo, Setaria viridis; details: application rate 320 g/ha, visual assessment after ca. 3 weeks
# From the text: (§2) Seeds of mono- and dicotyledonous weed plants and crop plants were sown, in plastic or organic planting pots, in sandy loam, covered with soil and grown in a greenhouse under controlled growth conditions. 2 to 3 weeks after sowing, the test plants were sprayed in the single-leaf stage. The compounds according to the invention, formulated in form of wettable powders (WP) or as emulsifiable concentrates (EC), were sprayed onto the green plant parts as aqueous suspension or emulsion, with the addition of 0.5% of an additive, at an application rate of 6001 of water/ha (converted). The test plants were placed in the greenhouse for ca. 3 weeks under optimum growth conditions, and then the effect of the preparations was assessed visually in comparison with untreated controls (herbicidal effect in percent (%): 100% effect = plants have died off, 0% effect = as control plants). Tables E1 to E7 below show the effects of selected compounds of the general formula (I) according to table 1 on various harmful plants and an application rate corresponding to 320 g/ha or below obtained by the experimental procedure mentioned above. Table E1: post-emergence activity at 320g/ha against ALOMY in %
# [11] = test system: VERPE; assay: as above; type: in vivo, Veronica persica; details: application rate 320 g/ha, visual assessment after ca. 3 weeks
# From the text: as §2
# [12] = application rate 320 g/ha, treated at the one-leaf stage, rated visually after about 3 weeks vs untreated controls, 100% = the plants have died, 0% = like control plants
# [13] = application rate 1280 g/ha, Table B1a
# [14] = application rate 80 g/ha, Table D3b
# [15] = application rate 320 g/ha, Table D3a
# [16] = application rate 1280 g/ha, Table B11a
structure (smiles),measurement,setting,value
COCc1nn(C)cc1C(=O)N1CCCC1Cc1ccccc1F (racemic) [Example I-002],post-emergence activity against AMARE,[1],90%
same,pre-emergence activity against AVEFA,[2],80%
Cn1cc(C(=O)N2CCCC2Cc2ccccc2F)c(COc2ccccc2)n1 (racemic) [Example I-006],post-emergence activity against ABUTH,[3]; [12],90%
same,post-emergence activity against ABUTH,[3]; [13],90%
same,pre-emergence activity against VERPE,[4],100%
same,post-emergence activity against AMARE,[1],90%
same,pre-emergence activity against ORYZA,[5]; [14],0%
same,pre-emergence activity against ORYZA,[5]; [15],0%
Cn1cc(C(=O)N2CCCC2Cc2ccc(F)cc2F)c(COc2ccccc2)n1 (racemic) [Example I-008],pre-emergence activity against ORYZA,[5]; [14],0%
same,pre-emergence activity against ORYZA,[5]; [15],0%
C=C(c1ccccc1F)C1CCCN1C(=O)c1cn(C)nc1COC (racemic) [Example I-023],post-emergence activity against LOLRI,[6],90%
CNC(=O)n1cc(C(=O)N2CCCC2Cc2ccccc2F)c(COC)n1 (racemic) [Example I-051],post-emergence activity against STEME,[7],90%
COCc1c(C(=O)N2CCCC2Cc2ccccc2Cl)cnn1C (racemic) [Example I-170],post-emergence activity against LOLRI,[6],90%
same,post-emergence activity against VERPE,[8]; [16],90%
same,post-emergence activity against SETVI,[9],90%
"COCc1nn(C)cc1C(=O)N1CCCC1Cc1ccccc1F (single isomer, unassigned) [Example I-003]",post-emergence activity against ABUTH,[3]; [12],90%
same,post-emergence activity against ABUTH,[3]; [13],90%
same,post-emergence activity against VERPE,"[8]; application rate 80 g/ha, Table B11c",90%
same,post-emergence activity against VERPE,"[8]; application rate 320 g/ha, Table B11b",90%
same,post-emergence activity against VERPE,[8]; [16],90%
same,pre-emergence activity against AVEFA,[2],90%
same,post-emergence activity against SETVI in %,[10],80%
same,post-emergence activity against VERPE in %,[11],80%
"COCc1nn(C)cc1C(=O)N1CCCC1C(O)c1ccccc1F (single isomer, unassigned) [Example I-053]",post-emergence activity against SETVI in %,[10],80%
same,post-emergence activity against SETVI,[9],90%
"COCc1c(C(=O)N2CCCC2Cc2ccccc2F)cnn1C (single isomer, unassigned) [Example I-157]",pre-emergence activity against VERPE,[4],90%
same,post-emergence activity against STEME,[7],100%
